Data published in patent publication US20070054266A1, “Chemical sensor system” (NATIONAL INSTITUTE of ADVANCED INDUSTRIAL SCIENCE and …, priority 2002, published 2007).

Experiments:
[1] = tested on: olfactory cells; assay: Responsiveness of 2,740 isolated olfactory cells to odor molecules (fura-2 calcium fluorescence); format: cell-based, mouse; conditions: for number of olfactory cells responding, with the highest sensitivity and to the same extent, to both R(−)carvone and S(+)carvone / number of olfactory cells sensitively and selectively responding / number of olfactory cells responding, with higher sensitivity than others and to the same extent, to both pulegone and (−)menthone: of 2,740 olfactory cells investigated
Source text: (§1) It is reported that, in mice, the olfactory receptor is expressed is olfactory cells and detects and identifies odor molecules (Cell 96: 713-723 (1999) and the like). It is reported that there are four zones indicated by No. 1 to 4 in order from the dorsum to the ventral olfactory epithelium wherein olfactory cells are distributed and each olfactory receptor is limitedly expressed in any one of the four zones (Science 286 (5440): 706-711 (1999) and the like). As it is estimated by gene analysis estimates that there are about 1,000 types of olfactory receptors, the responsiveness to specific odor molecules of the olfactory cells sampled in statistically significant number from the four zones is equivalent. Therefore, in the present invention, the responsiveness of 2,740 olfactory cells, about 2.7 times as many as 1,000 specific types of cells, was investigated. It cannot be declared that the statistical significance is maintained for all zones, as the number of types of olfactory receptor included in each zone is not clear. […] As a result, 4 olfactory cells sensitively and selectively responding to R(−)carvone of spearmint odor of a typical olfactory source, 18 olfactory cells sensitively and selectively responding to S(+)carvone of caraway odor of another typical olfactory source, 3 olfactory cells responding, with higher sensitivity than others and to the same extent, to both pulegone and (−)menthone commonly having mint odor of another typical olfactory source, and 3 olfactory cells responding, with the highest sensitivity and to the same extent, to both R(−)carvone and S(+)carvone commonly having sweet odor of another typical olfactory source were found. Respectively, 2, 2, 1 and 1 type(s) of genes identified by RT-PCR determined from a single cell among such olfactory cells were found and described in the present invention.
The olfactory epithelium was quickly excised from a mouse euthanized by decapitation under anesthesia and divided into small pieces. These pieces were trypsinized to cleave intercellular junctions, and a sample of viable multiple mouse olfactory cells isolated from cells adhered to a cover slip by softly putting the treated pieces onto the cover slip taking care not to rupture them. Calcium-sensitive fluorescent dye fura-2 was intracellularly loaded on the sample, a solution of each odor molecule was administered, and the transient increase in intracellular calcium concentration triggered by the olfactory cells responding was detected by measuring and analysing the change in fura-2 fluorescence intensity within the cell using a microscope (Nikon), high-sensitive SIT video camera and image analysis device Argus-50 (Hamamatsu Photonics for both of the latter two), allowing the analysis individual cells response to specific odor molecules. Olfactory cell with a confirmed response were individually sampled with a micropipette containing 4 μl of cell lysis mix (1×MMLV buffer (GIBCO BRL), 0.5% NP-40, 290 U/ml RNA guard (Pharmacia), 300 U/ml Prime RNase inhibitor (Eppendorf), 10 μM each dNTP, 200 ng/ml pd(T)25-30) under microscopy and moved into a tube for PCR. After the tube was incubated at 65° C. for 1 minute, 0.5 μl of RT mixed solution containing 50 U of MMLV reverse transcriptase (GIBCO BRL) and 0.5 U of AMV reverse transcriptase (GIBCO BRL) was added to each tube, followed by reverse-transcription at 37° C. for 30 minutes and treatment at 65° C. for 10 minutes prior to the termination of reaction. To form polyA tails, 5 μl of 2×TdT buffer (GIBCO BRL), 1.5 mM DATP, and 3 U/μl Terminal deoxynucleotidyl transferase (GIBCO BRL) were added, followed by incubation at 37° C. for 15 minutes and treatment at 65° C. for 10 minutes prior to the termination of reaction. […]

[2] = tested on: olfactory receptor car-b85; assay: Odor response of olfactory cell expressing olfactory receptor car-b85 (fura-2 calcium fluorescence); format: cell-based, mouse; conditions: car-b85, odor quality Mint; for Response at 1 μM: responders at 1 μM with rank order; for Response at 10 μM: responders at 10 μM
Source text: It is reported that, in mice, the olfactory receptor is expressed is olfactory cells and detects and identifies odor molecules (Cell 96: 713-723 (1999) and the like). It is reported that there are four zones indicated by No. 1 to 4 in order from the dorsum to the ventral olfactory epithelium wherein olfactory cells are distributed and each olfactory receptor is limitedly expressed in any one of the four zones (Science 286 (5440): 706-711 (1999) and the like). As it is estimated by gene analysis estimates that there are about 1,000 types of olfactory receptors, the responsiveness to specific odor molecules of the olfactory cells sampled in statistically significant number from the four zones is equivalent. Therefore, in the present invention, the responsiveness of 2,740 olfactory cells, about 2.7 times as many as 1,000 specific types of cells, was investigated. It cannot be declared that the statistical significance is maintained for all zones, as the number of types of olfactory receptor included in each zone is not clear. […] Respectively, 2, 2, 1 and 1 type(s) of genes identified by RT-PCR determined from a single cell among such olfactory cells were found and described in the present invention. The olfactory epithelium was quickly excised from a mouse euthanized by decapitation under anesthesia and divided into small pieces. These pieces were trypsinized to cleave intercellular junctions, and a sample of viable multiple mouse olfactory cells isolated from cells adhered to a cover slip by softly putting the treated pieces onto the cover slip taking care not to rupture them. Calcium-sensitive fluorescent dye fura-2 was intracellularly loaded on the sample, a solution of each odor molecule was administered, and the transient increase in intracellular calcium concentration triggered by the olfactory cells responding was detected by measuring and analysing the change in fura-2 fluorescence intensity within the cell using a microscope (Nikon), high-sensitive SIT video camera and image analysis device Argus-50 (Hamamatsu Photonics for both of the latter two), allowing the analysis individual cells response to specific odor molecules. […] The olfactory receptors with high sensitivity to specific odor qualities are shown as follows.

[3] = tested on: olfactory receptor car-n266; assay: Odor response of olfactory cell expressing olfactory receptor car-n266 (fura-2 calcium fluorescence); format: cell-based, mouse; conditions: car-n266, Sweet odor; for Response at 1 μM: responders at 1 μM; for Response at 10 μM: responders at 10 μM
Source text: as §1
(§2) The olfactory epithelium was quickly excised from a mouse euthanized by decapitation under anesthesia and divided into small pieces. […] Calcium-sensitive fluorescent dye fura-2 was intracellularly loaded on the sample, a solution of each odor molecule was administered, and the transient increase in intracellular calcium concentration triggered by the olfactory cells responding was detected by measuring and analysing the change in fura-2 fluorescence intensity within the cell using a microscope (Nikon), high-sensitive SIT video camera and image analysis device Argus-50 (Hamamatsu Photonics for both of the latter two), allowing the analysis individual cells response to specific odor molecules. […]

[4] = tested on: olfactory receptor car-b161; assay: Odor response of olfactory cell expressing olfactory receptor car-b161 (fura-2 calcium fluorescence); format: cell-based, mouse; conditions: car-b161, odor quality Caraway; responders at 10 μM
Source text: (§3) It is reported that, in mice, the olfactory receptor is expressed is olfactory cells and detects and identifies odor molecules (Cell 96: 713-723 (1999) and the like). It is reported that there are four zones indicated by No. 1 to 4 in order from the dorsum to the ventral olfactory epithelium wherein olfactory cells are distributed and each olfactory receptor is limitedly expressed in any one of the four zones (Science 286 (5440): 706-711 (1999) and the like). […] Respectively, 2, 2, 1 and 1 type(s) of genes identified by RT-PCR determined from a single cell among such olfactory cells were found and described in the present invention.
as §2

[5] = tested on: olfactory receptor car-b153; assay: Odor response of olfactory cell expressing olfactory receptor car-b153 (fura-2 calcium fluorescence); format: cell-based, mouse; conditions: car-b153, odor quality Caraway; responders at 10 μM
Source text: as §3, §2

[6] = tested on: olfactory receptor car-c5; assay: Odor response of olfactory cell expressing olfactory receptor car-c5 (fura-2 calcium fluorescence); format: cell-based, mouse; conditions: car-c5, odor quality Spearmint; for Response at 10 μM: responders at 10 μM
Source text: (§4) It is reported that, in mice, the olfactory receptor is expressed is olfactory cells and detects and identifies odor molecules (Cell 96: 713-723 (1999) and the like). It is reported that there are four zones indicated by No. 1 to 4 in order from the dorsum to the ventral olfactory epithelium wherein olfactory cells are distributed and each olfactory receptor is limitedly expressed in any one of the four zones (Science 286 (5440): 706-711 (1999) and the like). As it is estimated by gene analysis estimates that there are about 1,000 types of olfactory receptors, the responsiveness to specific odor molecules of the olfactory cells sampled in statistically significant number from the four zones is equivalent. Therefore, in the present invention, the responsiveness of 2,740 olfactory cells, about 2.7 times as many as 1,000 specific types of cells, was investigated. It cannot be declared that the statistical significance is maintained for all zones, as the number of types of olfactory receptor included in each zone is not clear. […] Respectively, 2, 2, 1 and 1 type(s) of genes identified by RT-PCR determined from a single cell among such olfactory cells were found and described in the present invention.
as §2

[7] = tested on: olfactory receptor C257; assay: Response characteristics of olfactory receptor C257 expressed in cultured cell CHO; format: cell-based; conditions: sensitivity one order of magnitude lower than in olfactory receptor cell (FIG. 16)
Source text: Next, in this Example, response characteristics of olfactory receptor C257 were studied. A) is the case wherein it is expressed in olfactory receptor cell, and B) is the case wherein it is expressed in cell established and cultured cell CHO. […] However, response to sCa was not apparent (FIG. 16). […] Regarding discrimination, characteristics of the olfactory receptor can be considered to be expressed, independent of the cell type. However, regarding sensitivity and response starting time, they are change with regards to all odor molecules depending on the cell type. Therefore, it is necessary to evaluate the stimulation quality, paying attention to this point.

[8] = tested on: olfactory receptor car-n272; assay: Odor response of olfactory cell expressing olfactory receptor car-n272 (fura-2 calcium fluorescence); format: cell-based, mouse; conditions: car-n272, odor quality Spearmint; for Response at 10 μM: odor molecules listed are those giving a response at 10 μM
Source text: as §4, §2

[9] = of about 70-100 kinds of receptors
[10] = 1 μM, cells selective for the respective carvone (FIG. 8)

C=C(C)C1CC=C(C)C(=O)C1 (stereo not drawn) [carvone]
number of cells responding equally to both carvones at 1 μM ([1]; 1 μM): three | kinds of olfactory receptors functioning to identify carvone ([1]; corresponding to about 9.6% of about 1,000 kinds): 70-100 kinds | olfactory cells responding to carvone, share of the total ([1]; of 2,740 olfactory cells): 9.6% | number of olfactory cells responding to carvone ([1]; of 2,740 olfactory cells, carvone = both S(+)carvone and R(−)carvone): 263 | fraction of the carvone-identifying olfactory receptors responding to both carvones equally with relatively high sensitivity [1, 9]: about ⅖

C=C(C)[C@H]1CC=C(C)C(=O)C1 [sCa, S(+)-5-isopropenyl-2-methyl-2-cyclohexenon]
Response at 1 μM [2]: pu, mn > sCa, rCa | Response at 10 μM [2]: sCa | Response at 1 μM [3]: sCa | Response at 10 μM [3]: sCa | Response at 10 μM [4]: sCa | Response at 10 μM [5]: sCa | Response at 10 μM [6]: sCa | response of olfactory receptor C257 when expressed in CHO [7]: not apparent | Response at 10 μM [8]: sCa | number of selective cells responding at 1 μM [1, 10]: two | number of selective cells responding at 10 μM ([1]; 10 μM, cells selective for the respective carvone (FIG. 8)): seventeen | number of olfactory cells responding, with the highest sensitivity and to the same extent, to both R(−)carvone and S(+)carvone [1]: 3 olfactory cells | number of olfactory cells sensitively and selectively responding [1]: 18 olfactory cells | fraction of the carvone-identifying olfactory receptors responding with relatively high sensitivity [1, 9]: about ⅕

CC(C)=C1CC[C@@H](C)CC1=O [pu, (R)-p-menth-4(8)-en-3-one]
Response at 1 μM [2]: pu, mn > sCa, rCa | Response at 10 μM [2]: pu | number of olfactory cells responding, with higher sensitivity than others and to the same extent, to both pulegone and (−)menthone [1]: 3 olfactory cells

C=C(C)C1CCC(C)CC1O (stereo not drawn) [ip, 2-isopropenyl-5-methylcyclohexanol]
Response at 10 μM [2]: ip

C=C(C)[C@@H]1CC=C(C)C(=O)C1 [rCa, R(−)-5-isopropenyl-2-methyl-2-cyclohexenon]
Response at 1 μM [2]: pu, mn > sCa, rCa | Response at 10 μM [2]: rCa | Response at 1 μM [3]: rCa | Response at 10 μM [3]: rCa | Response at 1 μM ([6]; responders at 1 μM): rCa | Response at 10 μM [6]: rCa | response of olfactory receptor C257 when expressed in CHO [7]: high sensitivity could be confirmed | Response at 1 μM ([8]; odor molecules listed are those giving a response at 1 μM): rCa | Response at 10 μM [8]: rCa | number of selective cells responding at 1 μM [1, 10]: four | number of olfactory cells responding, with the highest sensitivity and to the same extent, to both R(−)carvone and S(+)carvone [1]: 3 olfactory cells | number of olfactory cells sensitively and selectively responding [1]: 4 olfactory cells | fraction of the carvone-identifying olfactory receptors responding with relatively high sensitivity [1, 9]: about ⅕

CC(C)[C@@H]1CC[C@@H](C)CC1=O [mn, (2S,5R)-2-isopropyl-5-methylcyclohexanone]
Response at 1 μM [2]: pu, mn > sCa, rCa | Response at 10 μM [2]: mn | number of olfactory cells responding, with higher sensitivity than others and to the same extent, to both pulegone and (−)menthone [1]: 3 olfactory cells
